# Reference: PubChem BioAssay AID248 (DTP/NCI, 2004)
# Where “and” joins values, the source holds several entries; their conditions need not be identical. Equal entries are not always repeated. Toxic doses and inconclusive results are not listed.
# Test system: L1210 leukemia ip in BDF1 mice, survival T/C
# Assay: NCI In Vivo Anticancer Drug Screen. Data for tumor model L1210 Leukemia (intraperitoneal) in B6D2F1 (BDF1) mice
# Details: endpoint: mean survival time, higher = longer survival
# Summary of the method: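 Ratio derived from survival: compound-dosed mice over vehicle-dosed mice, all bearing a transplantable tumor.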
# [1] = dose: 100.0 mg/kg/injection, schedule: Q01DX001 (ip), vehicle: carboxymethylcellulose (CMC)
# [2] = dose: 200.0 mg/kg/injection, schedule: Q01DX001 (ip), vehicle: carboxymethylcellulose (CMC)
# [3] = dose: 400.0 mg/kg/injection, schedule: Q01DX001 (ip), vehicle: carboxymethylcellulose (CMC)
# [4] = dose: 100.0 mg/kg/injection, schedule: Q01DX009 (ip), vehicle: Klucel (hydroxypropylcellulose) (HPC)
# [5] = dose: 100.0 mg/kg/injection, schedule: Q04DX003 (ip), vehicle: Klucel (hydroxypropylcellulose) (HPC)
# [6] = dose: 200.0 mg/kg/injection, schedule: Q01DX009 (ip), vehicle: Klucel (hydroxypropylcellulose) (HPC)
# [7] = dose: 200.0 mg/kg/injection, schedule: Q04DX003 (ip), vehicle: Klucel (hydroxypropylcellulose) (HPC)
# [8] = dose: 400.0 mg/kg/injection, schedule: Q01DX009 (ip), vehicle: Klucel (hydroxypropylcellulose) (HPC)
# [9] = dose: 400.0 mg/kg/injection, schedule: Q04DX003 (ip), vehicle: Klucel (hydroxypropylcellulose) (HPC)
# [10] = dose: 100.0 mg/kg/injection, schedule: Q01DX001 (ip), vehicle: saline
# [11] = dose: 200.0 mg/kg/injection, schedule: Q01DX001 (ip), vehicle: saline
# [12] = dose: 400.0 mg/kg/injection, schedule: Q01DX001 (ip), vehicle: saline
# [13] = dose: 100.0 mg/kg/injection, schedule: Q01DX001 (ip), vehicle: acetone
smiles,measurement,setting,value
O=C(Nc1ccc(NC2=NCCN2)cc1)c1cccc(C(=O)Nc2ccc(NC3=NCCN3)cc2)c1,T/C,"dose: 3.75 mg/kg/injection, schedule: Q01DX Z (ip), vehicle: methylcellulose (MC)",100 % of control
same,T/C,"dose: 7.5 mg/kg/injection, schedule: Q01DX Z (ip), vehicle: methylcellulose (MC)",104 % of control
same,T/C,"dose: 15.0 mg/kg/injection, schedule: Q01DX Z (ip), vehicle: methylcellulose (MC)",116 % of control
same,T/C,"dose: 30.0 mg/kg/injection, schedule: Q01DX Z (ip), vehicle: methylcellulose (MC)",161 % of control
CC(C)/C(=N\[N+](C)(C)C)c1ccccc1,T/C,"dose: 18.8 mg/kg/injection, schedule: Q04DX003 (ip), vehicle: saline",97 % of control
same,T/C,"dose: 37.5 mg/kg/injection, schedule: Q04DX003 (ip), vehicle: saline",100 % of control
same,T/C,"dose: 75.0 mg/kg/injection, schedule: Q01DX001 (ip), vehicle: saline",103 % of control
same,T/C,"dose: 75.0 mg/kg/injection, schedule: Q04DX003 (ip), vehicle: saline",100 % of control
Cc1ccc(S(=O)(=O)N(CCC(=O)O)Cc2ccccc2)cc1,T/C,[1],121 % of control
same,T/C,[2],103 % of control
same,T/C,[3],108 % of control
CCc1ccc(N=Nc2ccc(Br)cc2)cc1,T/C,[1],93 % of control
same,T/C,[2],98 % of control
same,T/C,[3],98 % of control
O=C(NCO)NCO,T/C,"dose: 75.0 mg/kg/injection, schedule: Q01DX001 (ip), vehicle: Klucel (hydroxypropylcellulose) (HPC)",95 % of control
same,T/C,"dose: 150.0 mg/kg/injection, schedule: Q01DX001 (ip), vehicle: Klucel (hydroxypropylcellulose) (HPC)",93 % of control
same,T/C,"dose: 300.0 mg/kg/injection, schedule: Q01DX001 (ip), vehicle: Klucel (hydroxypropylcellulose) (HPC)",97 % of control
O=C(c1ccccc1)C(Br)C(Br)C(=O)c1ccccc1 (stereo unspecified),T/C,[1],107 % of control
same,T/C,[4],93 % of control
same,T/C,[5],91 % of control
same,T/C,[2],96 % of control
same,T/C,[6],101 % of control
same,T/C,[7],88 % of control
same,T/C,[3],107 % of control
same,T/C,[8],91 % of control
same,T/C,[9],90 % of control
O=C(C[n+]1ccccc1)N/N=C/c1ccccc1Cl,T/C,"dose: 25.0 mg/kg/injection, schedule: Q01DX009 (ip), vehicle: saline with Tween-80",98 % of control
same,T/C,"dose: 50.0 mg/kg/injection, schedule: Q01DX009 (ip), vehicle: saline with Tween-80",98 % of control
same,T/C,"dose: 100.0 mg/kg/injection, schedule: Q01DX009 (ip), vehicle: saline with Tween-80",100 % of control
C=CCCCCCCCCC(=O)NCC1CC1,T/C,"dose: 100.0 mg/kg/injection, schedule: Q04DX003 (ip), vehicle: saline with Tween-80",98 % of control
same,T/C,"dose: 200.0 mg/kg/injection, schedule: Q04DX003 (ip), vehicle: saline with Tween-80",92 % of control
same,T/C,"dose: 400.0 mg/kg/injection, schedule: Q04DX003 (ip), vehicle: saline with Tween-80",88 % of control
Nc1nc2c(c(-c3ccc(Cl)cc3)n1)CN(CCCC(=O)O)C2=O,T/C,[10],105 % of control
same,T/C,"dose: 100.0 mg/kg/injection, schedule: Q04DX003 (ip), vehicle: saline",96 % of control
same,T/C,[11],98 % of control
same,T/C,"dose: 200.0 mg/kg/injection, schedule: Q04DX003 (ip), vehicle: saline",104 % of control
same,T/C,[12],100 % of control
same,T/C,"dose: 400.0 mg/kg/injection, schedule: Q04DX003 (ip), vehicle: saline",107 % of control
CC(=O)OC(C(=O)c1ccccc1)c1ccccc1 (stereo unspecified),T/C,[4],94 % of control
same,T/C,[5],104 % of control
same,T/C,[6],94 % of control
same,T/C,[7],104 % of control
same,T/C,[8],104 % of control
same,T/C,[9],91 % of control
Cc1ccc(S(=O)(=O)N(CCCc2c(C)nc(N)nc2Nc2ccccc2)c2ccccc2)cc1,T/C,"dose: 25.0 mg/kg/injection, schedule: Q01DX001 (ip), vehicle: saline with Tween-80",108 % of control
same,T/C,"dose: 50.0 mg/kg/injection, schedule: Q01DX001 (ip), vehicle: saline with Tween-80",92 % of control
same,T/C,"dose: 100.0 mg/kg/injection, schedule: Q01DX001 (ip), vehicle: saline with Tween-80",93 % of control
CC(=O)OC(C)C(C)Br (stereo unspecified),T/C,"dose: 50.0 mg/kg/injection, schedule: Q04DX002 (ip), vehicle: Klucel (hydroxypropylcellulose) (HPC)",93 % of control
same,T/C,[13],89 % of control
same,T/C,"dose: 100.0 mg/kg/injection, schedule: Q04DX002 (ip), vehicle: Klucel (hydroxypropylcellulose) (HPC)",100 % of control
same,T/C,"dose: 200.0 mg/kg/injection, schedule: Q01DX001 (ip), vehicle: acetone",92 % of control
O=C1c2cccc3cc([N+](=O)[O-])cc(c23)C(=O)N1Cc1cccnc1,T/C,"dose: 100.0 mg/kg/injection, schedule: Q04DX003 (ip), vehicle: carboxymethylcellulose (CMC)",93 % of control
same,T/C,"dose: 200.0 mg/kg/injection, schedule: Q04DX003 (ip), vehicle: carboxymethylcellulose (CMC)",90 % of control
same,T/C,"dose: 400.0 mg/kg/injection, schedule: Q04DX003 (ip), vehicle: carboxymethylcellulose (CMC)",97 % of control
COc1cc(N(CCCl)CCCl)c(OC)cc1/C=N\NC(=O)CN(C)C,T/C,"dose: 2.25 mg/kg/injection, schedule: Q01DX015 (ip), vehicle: saline",105 % of control
same,T/C,"dose: 4.5 mg/kg/injection, schedule: Q01DX015 (ip), vehicle: saline",108 % of control
same,T/C,"dose: 6.25 mg/kg/injection, schedule: Q01DX015 (ip), vehicle: saline",119 % of control
same,T/C,"dose: 9.0 mg/kg/injection, schedule: Q01DX015 (ip), vehicle: saline",116 % of control
same,T/C,"dose: 10.5 mg/kg/injection, schedule: Q01DX015 (ip), vehicle: saline",114 % of control
same,T/C,"dose: 12.5 mg/kg/injection, schedule: Q01DX015 (ip), vehicle: saline",115 % of control
same,T/C,"dose: 18.0 mg/kg/injection, schedule: Q01DX015 (ip), vehicle: saline",111 % of control and 116 % of control
same,T/C,"dose: 25.0 mg/kg/injection, schedule: Q01DX015 (ip), vehicle: saline",96 % of control
same,T/C,"dose: 30.0 mg/kg/injection, schedule: Q01DX015 (ip), vehicle: saline",88 % of control
same,T/C,"dose: 36.0 mg/kg/injection, schedule: Q01DX015 (ip), vehicle: saline",94 % of control
same,T/C,"dose: 44.7 mg/kg/injection, schedule: Q01DX001 (ip), vehicle: saline",120 % of control
same,T/C,"dose: 50.0 mg/kg/injection, schedule: Q01DX015 (ip), vehicle: saline",90 % of control
same,T/C,[10],162 % of control
same,T/C,"dose: 150.0 mg/kg/injection, schedule: Q01DX001 (ip), vehicle: saline",124 % of control
CC(C)CCCC(=O)CCCCCCC(=O)CCN(O)C(=O)C(N)CO (stereo unspecified),T/C,"dose: 12.5 mg/kg/injection, schedule: Q01DX009 (ip), vehicle: acetone",93 % of control
same,T/C,"dose: 25.0 mg/kg/injection, schedule: Q01DX009 (ip), vehicle: acetone",102 % of control
same,T/C,"dose: 25.0 mg/kg/injection, schedule: Q04DX003 (ip), vehicle: acetone",95 % of control
same,T/C,"dose: 50.0 mg/kg/injection, schedule: Q04DX003 (ip), vehicle: acetone",103 % of control
same,T/C,[13],97 % of control
CC(=O)O/N=C\C(C)=N\OC(C)=O,T/C,"dose: 15.0 mg/kg/injection, schedule: Q01DX Z (ip), vehicle: saline",109 % of control
same,T/C,"dose: 30.0 mg/kg/injection, schedule: Q01DX Z (ip), vehicle: saline",109 % of control
same,T/C,"dose: 60.0 mg/kg/injection, schedule: Q01DX Z (ip), vehicle: saline",107 % of control
same,T/C,"dose: 120.0 mg/kg/injection, schedule: Q01DX Z (ip), vehicle: saline",107 % of control
CC(=O)Nc1ccc(NC(=O)Nc2ccc(F)c(Cl)c2)cc1,T/C,[5],92 % of control
same,T/C,[7],97 % of control
same,T/C,[9],95 % of control
Cc1ccc(NC2=NCCO2)cc1,T/C,"dose: 50.0 mg/kg/injection, schedule: Q01DX001 (ip), vehicle: carboxymethylcellulose (CMC)",104 % of control
same,T/C,[1],96 % of control
same,T/C,[2],98 % of control
O=C(OCCO)c1ccc(O)cc1,T/C,[10],88 % of control
same,T/C,[11],93 % of control
same,T/C,[12],88 % of control
